Here are results for nine compounds from US8895587B2, “Insecticidal compounds based on arylthioacetamide derivatives” (Syngenta Participations AG, priority 2011, dated 2014).

Holding throughout (format): in vivo
For one test, the system named is Tetranychus urticae. Briefly: Tetranychus urticae (two-spotted spider mite) leaf disc test. Particulars: foliar, 192 h, application rate 200 ppm, bean leaf discs, 8 days. From the text: Bean leaf discs on agar in 24-well microtiter plates were sprayed with test solutions at an application rate of 200 ppm. After drying, the leaf discs are infested with mite populations of mixed ages. 8 days later, discs are checked for egg mortality, larval mortality, and adult mortality.

Another test deals with Myzus persicae. Briefly: Myzus persicae (green peach aphid), systemic test. The following applies: 144 h, application rate 12.5 ppm, roots of pea seedlings in test solution, 6 days. From the text: Myzus persicae (Green peach aphid), systemic test: Roots of pea seedlings, infested with an aphid population of mixed ages, are placed directly in the test solutions at an application rate of 12.5 ppm. 6 days after introduction, samples are checked for mortality and special effects on the plant. The following compounds gave at least 80% control of Myzus persicae: […]

Test [1] deals with Heliothis virescens. The experiment in a line: Heliothis virescens (tobacco budworm) egg/larval test on artificial diet. Particulars: 96 h, application rate 200 ppm (concentration in well 18 ppm), eggs on artificial diet, 4 days. As to the method:
Eggs (0-24 h old) were placed in 24-well microtiter plate on artificial diet and treated with test solutions at an application rate of 200 ppm (concentration in well 18 ppm) by pipetting. After an incubation period of 4 days, samples were checked for egg mortality, larval mortality, and growth regulation.

In test [2] the test system is Heliothis virescens. Described as above. Particulars: 96 h; for pest or weed control at 0.2 ppm: application rate 0.2 ppm; for pest or weed control at 0.8 ppm: application rate 0.8 ppm; for pest or weed control at 3 ppm: application rate 3 ppm.
The test system of test [3] is Plutella xylostella. The experiment in a line: Plutella xylostella (diamond back moth) larval test on artificial diet. The following applies: 144 h, application rate 200 ppm (concentration in well 18 ppm), L2 larvae on artificial diet, 6 days. As to the method: 24-well microtiter plate (MTP) with artificial diet was treated with test solutions at an application rate of 200 ppm (concentration in well 18 ppm) by pipetting. After drying, the MTP's were infested with L2 larvae (7-12 per well). After an incubation period of 6 days, samples were checked for larval mortality and growth regulation.

The test system of test [4] is Plutella xylostella. The test is described as above. Particulars: 144 h; for pest or weed control at 0.2 ppm: application rate 0.2 ppm; for pest or weed control at 0.8 ppm: application rate 0.8 ppm; for pest or weed control at 3 ppm: application rate 3 ppm.
The next test relates to Thrips tabaci. Briefly: Thrips tabaci (onion thrips) leaf disc test. Particulars: foliar, 168 h, application rate 200 ppm, sunflower leaf discs, 7 days. As to the method:
Sunflower leaf discs were placed on agar in a 24-well microtiter plate and sprayed with test solutions at an application rate of 200 ppm. After drying, the leaf discs were infested with a thrips population of mixed ages. After an incubation period of 7 days, samples were checked for mortality.

The test system of test [5] is Diabrotica balteata. The experiment in a line: Diabrotica balteata (corn root worm) larval test on artificial diet. The following applies: 120 h, read-out: Control/% Diabrotica balteata Corn rootworm; for pest or weed control at 0.8 ppm: application rate 0.8 ppm; for pest or weed control at 3 ppm: application rate 3 ppm; for pest or weed control at 12 ppm: application rate 12 ppm; for pest or weed control at 50 ppm: application rate 50 ppm.

The subject of a further test is Spodoptera littoralis. Briefly: Spodoptera littoralis (Egyptian cotton leafworm) leaf disc test. Particulars: foliar, 72 h, application rate 200 ppm, cotton leaf discs, L1 larvae, mortality, feeding behavior, growth regulation 3 DAT. From the text: Spodoptera littoralis (Egyptian Cotton Leafworm): Cotton leaf discs were placed on agar in a 24-well microtiter plate and sprayed with test solutions at an application rate of 200 ppm. After drying, the leaf discs were infested with 5 L1 larvae. The samples were checked for mortality, feeding behavior, and growth regulation 3 days after treatment (DAT).

For test [6], the system named is Diabrotica balteata. The experiment in a line: Diabrotica balteata (corn root worm) larval test on artificial diet. Particulars: 120 h, application rate 200 ppm (concentration in well 18 ppm), L2 larvae on artificial diet, 5 days. On the procedure: Diabrotica balteata (Corn Root Worm): A 24-well microtiter plate (MTP) with artificial diet was treated with test solutions at an application rate of 200 ppm (concentration in well 18 ppm) by pipetting. After drying, the MTP's were infested with L2 larvae (6-10 per well). After an incubation period of 5 days, samples were checked for larval mortality and growth regulation.

Regarding `Cc1cc(C2=NO[C@@](c3cc(Cl)cc(Cl)c3)(C(F)(F)F)C2)ccc1SCC(=O)NCC(F)(F)F` [Compound C1, 2-{4-[(S)-5-(3,5-Dichloro-phenyl)-5-trifluoromethyl-4,5-dihydro-isoxazol-3-yl]-2-methyl-phenylsulfanyl}-N-(2,2,2-trifluoro-ethyl)-acetamide], the pest or weed control at 200 ppm in the test on Tetranychus urticae, in the test on Heliothis virescens [1], with Plutella xylostella [3] and in the test on Thrips tabaci was at least 80% in each case. Besides, the pest or weed control at 12.5 ppm in the test on Myzus persicae is at least 80%. Also, the pest or weed control at 0.2 ppm in the test with Heliothis virescens [2] and in the test on Plutella xylostella [4] was 80% throughout. Further, the pest or weed control at 0.8 ppm in the test with Heliothis virescens [2] turned out to be 80%; in the test with Plutella xylostella [4], 100%; in the test on Diabrotica balteata [5], 80%. The pest or weed control at 3 ppm in the test with Heliothis virescens [2], in the test on Plutella xylostella [4] and in the test on Diabrotica balteata [5] was 100% in each case. Besides, in the test with Diabrotica balteata [5], the pest or weed control at 12 ppm was 100%.

On to `Cc1cc(C2=NOC(c3cc(Cl)cc(Cl)c3)(C(F)(F)F)C2)ccc1SCC(=O)NCC(F)(F)F` (centres unmarked) [Compound A49, 2-{2-Methyl-4-[5-(3,5-Dichloro-phenyl)-5-trifluoromethyl-4,5-dihydro-isoxazol-3-yl]-phenylsulfanyl}-N-(2,2,2-trifluoro-ethyl)-acetamide], for which the pest or weed control at 200 ppm in the test on Tetranychus urticae, in the test on Spodoptera littoralis, with Diabrotica balteata [6], in the test on Heliothis virescens [1], in the test on Plutella xylostella [3] and with Thrips tabaci was at least 80% in each case. In the test on Myzus persicae, this compound returned a pest or weed control at 12.5 ppm of at least 80%. Also, the pest or weed control at 0.8 ppm in the test with Heliothis virescens [2] and with Plutella xylostella [4] was 80% each time. The pest or weed control at 3 ppm with Heliothis virescens [2], in the test with Plutella xylostella [4] and in the test on Diabrotica balteata [5] was 100% each time. The pest or weed control at 12 ppm in the test with Diabrotica balteata [5] was determined as 100%.

With `Cc1cc(C2=NOC(c3cc(Cl)cc(Cl)c3)(C(F)(F)F)C2)ccc1[S+]([O-])CC(=O)NCC(F)(F)F` (centres unmarked) [Compound A50, 2-{4-[5-(3,5-Dichloro-phenyl)-5-trifluoromethyl-4,5-dihydro-isoxazol-3-yl]-2-methyl-benzenesulfinyl}-N-(2,2,2-trifluoro-ethyl)-acetamide], the pest or weed control at 200 ppm in the test with Tetranychus urticae, with Spodoptera littoralis, in the test with Diabrotica balteata [6], in the test on Heliothis virescens [1], with Plutella xylostella [3] and in the test with Thrips tabaci was at least 80% throughout. In the test on Myzus persicae, the pest or weed control at 12.5 ppm is at least 80%. Besides, the pest or weed control at 0.8 ppm in the test on Heliothis virescens [2] and in the test on Plutella xylostella [4] was 80% in each case. Further, the pest or weed control at 3 ppm with Heliothis virescens [2] stood at 80%; in the test on Plutella xylostella [4] it was 100%; in the test on Diabrotica balteata [5], 75%. In addition, the pest or weed control at 12 ppm with Diabrotica balteata [5] turned out to be 100%. Besides, the pest or weed control at 50 ppm with Diabrotica balteata [5] came to 100%.

As for `O=C(C[S+]([O-])c1ccc(C2=NOC(c3cc(Cl)cc(Cl)c3)(C(F)(F)F)C2)cc1)NCC(F)(F)F` (centres unmarked) [Compound 1-029], in the test on Heliothis virescens [2], the pest or weed control at 0.8 ppm was found to be 0% and the pest or weed control at 3 ppm was found to be 80%. Further, in the test on Plutella xylostella [4], the pest or weed control at 0.8 ppm came to 0% and the pest or weed control at 3 ppm worked out at 80%. In addition, in the test on Diabrotica balteata [5], the pest or weed control at 12 ppm worked out at 50% and the pest or weed control at 50 ppm is 100%.

In the test with Heliothis virescens [2], `CSc1ccc(C2=NOC(c3cc(Cl)cc(Cl)c3)(C(F)(F)F)C2)cc1C` (centres unmarked) [Compound 1-020] registered a pest or weed control at 0.8 ppm of 0% and a pest or weed control at 3 ppm of 0%. Besides, in the test on Plutella xylostella [4], the pest or weed control at 0.8 ppm was 0% and the pest or weed control at 3 ppm stood at 0%. In the test with Diabrotica balteata [5], the pest or weed control at 12 ppm came out at 20%.

Turning to `Cc1cc(C2=NOC(c3cc(Cl)cc(Cl)c3)(C(F)(F)F)C2)ccc1S(C)(=O)=O` (centres unmarked) [Compound 1-021], in the test with Heliothis virescens [2], the pest or weed control at 0.8 ppm turned out to be 0% and the pest or weed control at 3 ppm was found to be 0%. Also, in the test with Plutella xylostella [4], the pest or weed control at 0.8 ppm was 0% and the pest or weed control at 3 ppm was found to be 0%. Besides, in the test on Diabrotica balteata [5], the pest or weed control at 12 ppm turned out to be 0% and the pest or weed control at 50 ppm worked out at 90%.

In the test with Heliothis virescens [2], `O=C(CSc1ccc(C2=NOC(c3cc(Cl)cc(Cl)c3)(C(F)(F)F)C2)cc1)NCC(F)(F)F` (centres unmarked) [Compound 1-028] had a pest or weed control at 0.2 ppm of 0%, a pest or weed control at 0.8 ppm of 0% and a pest or weed control at 3 ppm of 90%. In the test on Plutella xylostella [4], this compound displayed a pest or weed control at 0.2 ppm of 0%, a pest or weed control at 0.8 ppm of 0% and a pest or weed control at 3 ppm of 50%. In the test with Diabrotica balteata [5], the pest or weed control at 0.8 ppm is 0%, the pest or weed control at 3 ppm came to 20% and the pest or weed control at 12 ppm amounted to 100%.

`O=C(CS(=O)(=O)c1ccc(C2=NOC(c3cc(Cl)cc(Cl)c3)(C(F)(F)F)C2)cc1)NCC(F)(F)F` (centres unmarked) [Compound 1-030]: in the test on Heliothis virescens [2], the pest or weed control at 0.8 ppm was 0% and the pest or weed control at 3 ppm turned out to be 80%. For the same compound, in the test with Plutella xylostella [4], the pest or weed control at 0.8 ppm worked out at 0% and the pest or weed control at 3 ppm is 0%. For the same compound, in the test with Diabrotica balteata [5], the pest or weed control at 12 ppm came out at 50% and the pest or weed control at 50 ppm amounted to 100%.

For the compound `Cc1cc(C2=NOC(c3cc(Cl)cc(Cl)c3)(C(F)(F)F)C2)ccc1S(=O)(=O)CC(=O)NCC(F)(F)F` (centres unmarked) [Compound A51, 2-{4-[5-(3,5-Dichloro-phenyl)-5-trifluoromethyl-4,5-dihydro-isoxazol-3-yl]-2-methyl-benzenesulfonyl}-N-(2,2,2-trifluoro-ethyl)-acetamide], the pest or weed control at 200 ppm in the test on Tetranychus urticae, in the test with Spodoptera littoralis, with Diabrotica balteata [6], in the test with Heliothis virescens [1], in the test with Plutella xylostella [3] and in the test on Thrips tabaci was at least 80% each time. This compound also had a pest or weed control at 12.5 ppm with Myzus persicae of at least 80%. In addition, the pest or weed control at 0.8 ppm in the test with Heliothis virescens [2] and in the test on Plutella xylostella [4] was 80% throughout. In addition, the pest or weed control at 3 ppm in the test on Heliothis virescens [2] came out at 80%; in the test on Plutella xylostella [4], 100%. In addition, in the test on Diabrotica balteata [5], the pest or weed control at 12 ppm worked out at 100%. The pest or weed control at 50 ppm in the test with Diabrotica balteata [5] stood at 100%.
